PMC10176470, “Engaging a Non-catalytic Cysteine Residue Drives Potent and Selective Inhibition of Caspase-6” (Journal of the American Chemical Society, 2023)

Key:
Format in all cases: cell-based
[1] = molecular target: proteins of HEK293T cells transiently overexpressing caspase-6 (Homo sapiens, UniProt P31948)
[2] = molecular target: T1, proteins of HEK293T cells transiently overexpressing caspase-6 (Homo sapiens, UniProt P62258); settings: protein YWHAE (P62258)
T1 sequence (P62258 1-255): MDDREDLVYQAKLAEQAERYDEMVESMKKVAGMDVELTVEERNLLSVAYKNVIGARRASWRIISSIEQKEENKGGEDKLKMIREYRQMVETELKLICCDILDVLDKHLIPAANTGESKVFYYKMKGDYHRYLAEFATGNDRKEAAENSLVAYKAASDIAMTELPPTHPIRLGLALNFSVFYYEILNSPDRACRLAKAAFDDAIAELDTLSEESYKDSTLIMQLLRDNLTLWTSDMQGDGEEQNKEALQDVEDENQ

[3] = molecular target: proteins of HEK293T cells transiently overexpressing caspase-6 (Homo sapiens, UniProt O96008); settings: exp_ref Probe; protein TOMM40 (O96008); analysis C6
[4] = molecular target: proteins of HEK293T cells transiently overexpressing caspase-6 (Homo sapiens, UniProt Q99873); settings: exp_ref Probe; protein PRMT1 (Q99873); analysis C6
[5] = molecular target: proteins of HEK293T cells transiently overexpressing caspase-6 (Homo sapiens, UniProt O43707); settings: protein ACTN4 (O43707)
[6] = molecular target: proteins of HEK293T cells transiently overexpressing caspase-6 (Homo sapiens, UniProt P25786); settings: Probe; protein PSMA1 P25786
[7] = molecular target: proteins of HEK293T cells transiently overexpressing caspase-6 (Homo sapiens, UniProt Q92598); settings: exp_ref Probe; protein HSPH1 (Q92598); analysis C6
[8] = molecular target: T2, proteins of HEK293T cells transiently overexpressing caspase-6 (Homo sapiens, UniProt Q13642)
T2 sequence (Q13642 1-323): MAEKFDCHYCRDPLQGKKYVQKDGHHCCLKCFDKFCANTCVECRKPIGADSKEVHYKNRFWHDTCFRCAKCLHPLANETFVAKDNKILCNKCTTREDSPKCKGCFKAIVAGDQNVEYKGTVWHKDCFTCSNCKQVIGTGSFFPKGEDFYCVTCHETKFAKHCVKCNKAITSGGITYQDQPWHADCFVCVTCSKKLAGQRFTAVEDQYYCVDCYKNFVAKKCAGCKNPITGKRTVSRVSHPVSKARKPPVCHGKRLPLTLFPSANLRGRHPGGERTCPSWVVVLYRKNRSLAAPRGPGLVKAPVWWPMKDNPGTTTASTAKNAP

[9] = molecular target: proteins of HEK293T cells transiently overexpressing caspase-6 (Homo sapiens, UniProt P46779); settings: exp_ref Probe; protein RPL28 (P46779); analysis C6
[10] = molecular target: T3, proteins of HEK293T cells transiently overexpressing caspase-6 (Homo sapiens, UniProt P30084); settings: exp_ref Probe; protein ECHS1 (P30084); analysis C6
T3 sequence (P30084 28-290): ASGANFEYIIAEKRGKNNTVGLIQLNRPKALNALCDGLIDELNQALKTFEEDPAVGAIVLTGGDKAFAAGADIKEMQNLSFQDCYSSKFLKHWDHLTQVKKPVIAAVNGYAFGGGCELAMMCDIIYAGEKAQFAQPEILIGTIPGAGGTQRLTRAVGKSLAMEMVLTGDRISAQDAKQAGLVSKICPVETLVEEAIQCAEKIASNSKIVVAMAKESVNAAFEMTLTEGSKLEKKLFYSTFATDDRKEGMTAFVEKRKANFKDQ

[11] = molecular target: proteins of HEK293T cells transiently overexpressing caspase-6 (Homo sapiens, UniProt O14880); settings: exp_ref Probe; protein MGST3 (O14880); analysis C6
[12] = molecular target: proteins of HEK293T cells transiently overexpressing caspase-6 (Homo sapiens, UniProt P09874); settings: protein PARP1 (P09874)
[13] = molecular target: proteins of HEK293T cells transiently overexpressing caspase-6 (Homo sapiens, UniProt P41250); settings: exp_ref Probe; protein GARS (P41250); analysis C6
[14] = molecular target: proteins of HEK293T cells transiently overexpressing caspase-6 (Homo sapiens, UniProt P08195); settings: protein SLC3A2 (P08195); exp_ref Probe; analysis C6
[15] = molecular target: proteins of HEK293T cells transiently overexpressing caspase-6 (Homo sapiens, UniProt Q9UBE0); settings: protein SAE1 (Q9UBE0); exp_ref Probe; analysis C6
[16] = molecular target: proteins of HEK293T cells transiently overexpressing caspase-6 (Homo sapiens, UniProt P26639); settings: exp_ref Probe; protein TARS (P26639); analysis C6
[17] = molecular target: proteins of HEK293T cells transiently overexpressing caspase-6 (Homo sapiens, UniProt Q96SB4); settings: protein SRPK1 (Q96SB4); exp_ref Probe; analysis C6
[18] = molecular target: proteins of HEK293T cells transiently overexpressing caspase-6 (Homo sapiens, UniProt P26640); settings: Probe; protein VARS P26640
[19] = molecular target: proteins of HEK293T cells transiently overexpressing caspase-6 (Homo sapiens, UniProt P38919); settings: exp_ref Probe; protein EIF4A3 (P38919); analysis C6
Sequence of proteins of HEK293T cells transiently overexpressing caspase-6 (Homo sapiens, UniProt P38919) (P38919 whole entry): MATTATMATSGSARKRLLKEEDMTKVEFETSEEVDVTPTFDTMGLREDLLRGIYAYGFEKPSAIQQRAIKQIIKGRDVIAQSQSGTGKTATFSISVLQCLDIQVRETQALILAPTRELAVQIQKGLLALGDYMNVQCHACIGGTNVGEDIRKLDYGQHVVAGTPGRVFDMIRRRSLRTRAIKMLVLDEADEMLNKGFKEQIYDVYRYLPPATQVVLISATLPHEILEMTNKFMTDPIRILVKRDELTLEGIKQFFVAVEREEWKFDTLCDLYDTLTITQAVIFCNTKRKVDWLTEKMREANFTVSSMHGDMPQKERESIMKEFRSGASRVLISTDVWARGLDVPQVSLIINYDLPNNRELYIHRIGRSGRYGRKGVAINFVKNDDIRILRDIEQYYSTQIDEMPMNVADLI

Sequence of proteins of HEK293T cells transiently overexpressing caspase-6 (Homo sapiens, UniProt P09874) (P09874 whole entry): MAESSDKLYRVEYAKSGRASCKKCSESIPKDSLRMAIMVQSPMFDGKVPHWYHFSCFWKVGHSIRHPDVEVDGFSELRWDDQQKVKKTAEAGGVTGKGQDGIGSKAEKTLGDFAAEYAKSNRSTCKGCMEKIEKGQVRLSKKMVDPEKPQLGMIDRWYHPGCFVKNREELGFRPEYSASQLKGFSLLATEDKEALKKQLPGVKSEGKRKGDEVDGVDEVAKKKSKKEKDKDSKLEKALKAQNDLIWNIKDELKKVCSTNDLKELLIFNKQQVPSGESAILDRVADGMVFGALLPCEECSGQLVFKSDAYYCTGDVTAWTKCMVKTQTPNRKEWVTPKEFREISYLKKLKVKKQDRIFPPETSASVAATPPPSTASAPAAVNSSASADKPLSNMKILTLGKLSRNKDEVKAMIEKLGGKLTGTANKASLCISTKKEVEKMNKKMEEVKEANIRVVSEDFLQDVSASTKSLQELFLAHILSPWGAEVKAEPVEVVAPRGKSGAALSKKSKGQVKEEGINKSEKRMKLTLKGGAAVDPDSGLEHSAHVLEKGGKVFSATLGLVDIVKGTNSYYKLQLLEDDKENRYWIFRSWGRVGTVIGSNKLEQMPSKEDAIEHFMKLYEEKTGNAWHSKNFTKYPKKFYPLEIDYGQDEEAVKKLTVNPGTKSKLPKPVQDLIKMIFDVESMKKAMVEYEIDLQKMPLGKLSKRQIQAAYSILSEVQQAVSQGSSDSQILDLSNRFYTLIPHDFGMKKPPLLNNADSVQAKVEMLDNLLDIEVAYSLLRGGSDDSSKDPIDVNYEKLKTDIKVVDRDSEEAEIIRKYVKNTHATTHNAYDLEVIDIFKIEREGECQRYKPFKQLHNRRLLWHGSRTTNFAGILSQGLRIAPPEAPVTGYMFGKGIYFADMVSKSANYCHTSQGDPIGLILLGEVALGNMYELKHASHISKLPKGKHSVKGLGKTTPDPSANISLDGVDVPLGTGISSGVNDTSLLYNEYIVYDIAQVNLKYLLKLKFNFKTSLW
Sequence of proteins of HEK293T cells transiently overexpressing caspase-6 (Homo sapiens, UniProt P31948) (P31948 whole entry): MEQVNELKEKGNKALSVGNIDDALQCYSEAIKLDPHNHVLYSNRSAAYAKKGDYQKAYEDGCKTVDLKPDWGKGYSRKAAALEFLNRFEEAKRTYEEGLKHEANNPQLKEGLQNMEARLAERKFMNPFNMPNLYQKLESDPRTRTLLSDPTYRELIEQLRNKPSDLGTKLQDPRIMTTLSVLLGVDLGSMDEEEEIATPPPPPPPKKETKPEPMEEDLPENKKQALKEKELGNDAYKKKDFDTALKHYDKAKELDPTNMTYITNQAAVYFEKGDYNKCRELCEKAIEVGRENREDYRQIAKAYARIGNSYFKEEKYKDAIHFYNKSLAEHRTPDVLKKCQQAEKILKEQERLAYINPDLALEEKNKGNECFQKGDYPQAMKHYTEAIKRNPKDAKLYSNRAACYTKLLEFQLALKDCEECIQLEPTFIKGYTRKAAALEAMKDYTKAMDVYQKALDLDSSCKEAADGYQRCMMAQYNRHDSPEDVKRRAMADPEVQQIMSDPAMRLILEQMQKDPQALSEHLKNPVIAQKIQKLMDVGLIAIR
Sequence of proteins of HEK293T cells transiently overexpressing caspase-6 (Homo sapiens, UniProt O43707) (O43707 whole entry): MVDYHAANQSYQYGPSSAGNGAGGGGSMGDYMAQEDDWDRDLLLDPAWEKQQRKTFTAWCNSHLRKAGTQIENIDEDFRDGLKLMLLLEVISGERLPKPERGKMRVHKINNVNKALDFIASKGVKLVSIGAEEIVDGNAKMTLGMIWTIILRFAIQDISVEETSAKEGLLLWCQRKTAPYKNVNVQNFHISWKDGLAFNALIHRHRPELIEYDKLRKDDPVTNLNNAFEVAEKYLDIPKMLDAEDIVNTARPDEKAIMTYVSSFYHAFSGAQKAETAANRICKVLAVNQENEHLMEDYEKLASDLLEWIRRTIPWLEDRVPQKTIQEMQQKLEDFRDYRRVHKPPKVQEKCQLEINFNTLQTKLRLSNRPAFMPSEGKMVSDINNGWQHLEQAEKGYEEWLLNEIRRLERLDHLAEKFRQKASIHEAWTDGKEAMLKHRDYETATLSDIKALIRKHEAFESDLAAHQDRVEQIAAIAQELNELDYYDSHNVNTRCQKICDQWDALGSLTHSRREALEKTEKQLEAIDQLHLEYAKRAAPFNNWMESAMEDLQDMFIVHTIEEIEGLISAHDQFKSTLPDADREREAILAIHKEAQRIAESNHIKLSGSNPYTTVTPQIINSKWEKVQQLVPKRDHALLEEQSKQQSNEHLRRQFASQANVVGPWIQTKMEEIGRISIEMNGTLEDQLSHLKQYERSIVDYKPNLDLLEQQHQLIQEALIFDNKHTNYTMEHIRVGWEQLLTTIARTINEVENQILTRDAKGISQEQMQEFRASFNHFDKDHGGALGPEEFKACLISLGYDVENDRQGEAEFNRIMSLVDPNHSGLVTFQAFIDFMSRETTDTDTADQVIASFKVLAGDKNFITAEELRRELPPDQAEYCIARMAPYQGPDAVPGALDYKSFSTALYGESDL
Sequence of proteins of HEK293T cells transiently overexpressing caspase-6 (Homo sapiens, UniProt P26640) (P26640 whole entry): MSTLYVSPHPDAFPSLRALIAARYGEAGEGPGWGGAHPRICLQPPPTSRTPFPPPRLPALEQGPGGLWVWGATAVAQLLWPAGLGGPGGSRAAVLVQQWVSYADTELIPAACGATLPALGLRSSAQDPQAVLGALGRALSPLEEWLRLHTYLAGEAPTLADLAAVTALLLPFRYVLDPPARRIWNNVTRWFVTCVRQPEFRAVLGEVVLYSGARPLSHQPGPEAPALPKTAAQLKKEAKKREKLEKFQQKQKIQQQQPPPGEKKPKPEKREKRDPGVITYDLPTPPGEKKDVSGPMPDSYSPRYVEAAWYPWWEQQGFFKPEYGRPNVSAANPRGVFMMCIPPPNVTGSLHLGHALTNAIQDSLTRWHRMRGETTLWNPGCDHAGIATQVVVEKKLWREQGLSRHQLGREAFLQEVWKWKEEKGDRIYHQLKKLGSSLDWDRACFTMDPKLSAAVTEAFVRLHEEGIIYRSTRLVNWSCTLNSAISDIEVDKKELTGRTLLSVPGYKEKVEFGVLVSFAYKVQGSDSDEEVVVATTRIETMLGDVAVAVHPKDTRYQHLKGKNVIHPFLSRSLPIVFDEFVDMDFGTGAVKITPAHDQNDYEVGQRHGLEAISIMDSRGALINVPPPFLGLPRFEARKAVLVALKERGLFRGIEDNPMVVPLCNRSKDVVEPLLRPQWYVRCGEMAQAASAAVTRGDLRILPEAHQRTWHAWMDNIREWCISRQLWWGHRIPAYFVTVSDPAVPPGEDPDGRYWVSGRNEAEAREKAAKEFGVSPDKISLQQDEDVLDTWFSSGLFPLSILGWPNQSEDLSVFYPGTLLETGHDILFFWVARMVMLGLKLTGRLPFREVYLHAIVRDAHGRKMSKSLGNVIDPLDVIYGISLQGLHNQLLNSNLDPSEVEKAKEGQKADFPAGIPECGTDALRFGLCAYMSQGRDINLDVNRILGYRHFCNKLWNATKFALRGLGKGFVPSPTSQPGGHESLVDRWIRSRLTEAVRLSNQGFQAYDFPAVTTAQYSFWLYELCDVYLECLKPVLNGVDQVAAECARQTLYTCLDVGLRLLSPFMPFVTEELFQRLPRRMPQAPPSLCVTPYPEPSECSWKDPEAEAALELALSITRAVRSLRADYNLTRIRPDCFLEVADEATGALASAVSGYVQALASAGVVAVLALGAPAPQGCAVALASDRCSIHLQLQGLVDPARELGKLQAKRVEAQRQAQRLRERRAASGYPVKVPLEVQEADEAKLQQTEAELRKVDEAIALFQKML
Sequence of proteins of HEK293T cells transiently overexpressing caspase-6 (Homo sapiens, UniProt Q99873) (Q99873 whole entry): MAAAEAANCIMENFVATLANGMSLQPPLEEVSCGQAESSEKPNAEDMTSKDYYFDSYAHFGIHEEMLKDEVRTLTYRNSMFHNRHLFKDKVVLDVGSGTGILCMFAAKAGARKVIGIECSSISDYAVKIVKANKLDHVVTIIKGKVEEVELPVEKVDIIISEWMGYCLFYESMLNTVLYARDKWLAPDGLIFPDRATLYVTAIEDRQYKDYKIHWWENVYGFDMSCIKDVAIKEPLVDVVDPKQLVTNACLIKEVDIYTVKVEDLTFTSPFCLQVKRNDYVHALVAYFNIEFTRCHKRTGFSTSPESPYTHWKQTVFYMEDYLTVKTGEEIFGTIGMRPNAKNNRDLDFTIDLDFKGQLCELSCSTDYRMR
Sequence of proteins of HEK293T cells transiently overexpressing caspase-6 (Homo sapiens, UniProt O96008) (O96008 whole entry): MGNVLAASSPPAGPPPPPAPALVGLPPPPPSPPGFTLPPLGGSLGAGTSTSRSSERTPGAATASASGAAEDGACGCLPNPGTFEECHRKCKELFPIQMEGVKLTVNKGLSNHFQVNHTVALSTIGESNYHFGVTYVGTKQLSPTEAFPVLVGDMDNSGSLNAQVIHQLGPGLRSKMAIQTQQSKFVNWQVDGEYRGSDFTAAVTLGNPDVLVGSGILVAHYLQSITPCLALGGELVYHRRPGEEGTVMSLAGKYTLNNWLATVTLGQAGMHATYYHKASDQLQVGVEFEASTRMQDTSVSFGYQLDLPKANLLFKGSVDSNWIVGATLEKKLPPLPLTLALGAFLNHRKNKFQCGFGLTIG
Sequence of proteins of HEK293T cells transiently overexpressing caspase-6 (Homo sapiens, UniProt O14880) (O14880 whole entry): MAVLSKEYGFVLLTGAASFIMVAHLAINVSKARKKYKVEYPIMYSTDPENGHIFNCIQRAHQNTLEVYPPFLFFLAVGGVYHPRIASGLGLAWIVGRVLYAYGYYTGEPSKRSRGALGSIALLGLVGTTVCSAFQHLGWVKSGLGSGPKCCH

## C#CCOc1ccc([C@@H]2C[C@@H](C(=O)Nc3ccc(OC(F)(F)F)cc3)CN(S(=O)(=O)C=C)C2)cc1 (relative stereo) [13-t]
[1]; Probe, protein STIP1 P31948
  enrich.exp.med: -0.591
[1]; protein STIP1 (P31948)
  enrich.exp.med.lin: 0.6639
  enrich.exp.med.log2: -0.591
[2]; exp_ref Probe, analysis C6
  enrich.exp.med: 0.9895
[2]
  enrich.exp.med.lin: 1.986
  enrich.exp.med.log2: 0.9895
[3]
  enrich.exp.med: 0.5045
[4]
  enrich.exp.med: -0.1105
[5]; exp_ref Probe, analysis C6
  enrich.exp.med: 0.6607
[5]
  enrich.exp.med.lin: 1.581
  enrich.exp.med.log2: 0.6607
[6]
  enrich.exp.med: -2.151
[7]
  enrich.exp.med: 0.7489
[8]; Probe, protein FHL1 Q13642
  enrich.exp.med: -0.95
[8]; protein FHL1 (Q13642)
  enrich.exp.med.lin: 0.5176
  enrich.exp.med.log2: -0.95
[9]
  enrich.exp.med: -0.3003
[10]
  enrich.exp.med: 0.4283
[11]
  enrich.exp.med: 1.143
[12]; exp_ref Probe, analysis C6
  enrich.exp.med: 0.2769
[12]
  enrich.exp.med.lin: 1.2116
  enrich.exp.med.log2: 0.2769
[13]
  enrich.exp.med: 1.008
[14]
  enrich.exp.med: 1.379
[15]
  enrich.exp.med: 1.338
[16]
  enrich.exp.med: 0.1344
[17]
  enrich.exp.med: 1.262
[18]
  enrich.exp.med: -1.705
[19]
  enrich.exp.med: 0.7561
